# Measurements published in US20220298213A1, “IN VIVO ENGINEERED CEREBLON PROTEIN” (Vividion Therapeutics, Inc., priority 2018, published 2022).
# Target: T1, CRBN_C287 (Homo sapiens, UniProt Q96SW2)
# T1 construct: endogenous in cells; host or cells: cell lysate
# Assay: CRBN C287 inhibition, probe labeling in lysate (Example 42)
# Format: binding
# Details: 500 uM, lysate, 1 h; read-out: % inh @ 500 uM (CRBN_C287, lysate 1 h)
# Protocol: The following 96-well sample prep protocol was used for sample preparation.
# Cells were resuspended in cold PBS on ice and sonicated with a probe sonicator to achieve lysis. 200 μL of lysate containing 5 mg/ml proteome was treated with 2 μL of 100× compound stock in a 2-mL deep-well plate. The treated lysate was subsequently incubate at 25° C. for 1 hr with shaking at 600 rpm. The treated lysate was further incubated with 2 μL of 10 mM desthiobiotin iodoacetamide probe at 25° C. for 1 hr with shaking at 600 rpm. […] 1.7 mL ice-cold acetone was added to each well and incubated at −20° C. for 2 hr, followed by max speed (4200 rpm) spin for 45 min. Acetone was then decanted and the plates were blotted to remove acetone. The plates were then dried in open air for 20 minutes. After drying, the plates were then covered with foil seal and stored at −80° C. overnight.
# The next day, samples were re-suspended in 90 μL of solution of 9M urea, 50 mM ammonium bicarbonate and 10 mM DTT by incubating at 65° C. for 20 min with shaking at 1500 rpm. […] The samples were then incubated at 37° C. for 30 min with shaking at 600 rpm.
# ZEBA desalting plates were equilibrated 4 times using 250 μL of 2M urea, 50 mM ammonium bicarbonate solution followed by centrifugation at 1500 rpm for 2 minutes. After equilibration was complete, samples were applied to ZEBA desalting plate and spin at 1500 rpm for 2 min on top of 1 mL 96-well deep-well collection plate to buffer exchange samples. 4 μL of solution containing 25 mM CaCl2 and 0.25 mg/mL trypsin was added to the plate and the plate was then incubated at 37° C. for 2 hrs with shaking at 600 rpm. 300 μL of solution containing 5% high-capacity streptavidin agarose slurry in 25 mM Tris-HCl pH 7.5, 150 mM NaCl, and 0.1% NP-40 then added. The plate was incubated at 25° C. for 2 hrs with shaking at 600 rpm. Samples were transferred to 25 μm filter plate and spin at 1000 rpm for 2 min. Samples were then washed 3 times with 0.75 mL of wash buffer (25 mM Tris-HCl pH 7.5, 150 mM NaCl, and 0.1% NP-40) followed by washing 3 times with 0.75 mL PBS, and then 4 times with 0.75 mL water. After the washing step, samples were eluted into polypropylene 96-well plate by addition of 250 μL of 50% MeCN/water, 0.1% formic acid and allowed to gravity drip for 10 min, followed by centrifugation at 1000 rpm for 2 min. Speedvac was used to dry the plates at about 45° C. for […]. Then the plates were covered with foil seal and stored at −20° C.
# Then add 30 μL of 0.1% formic acid solution was added and the plate was covered and incubated at 42° C. for 10 minutes with shaking at 600 rpm. Seal plate was then sealed with a 96-well silicon mat for analysis.
# T1 sequence (Q96SW2 whole entry): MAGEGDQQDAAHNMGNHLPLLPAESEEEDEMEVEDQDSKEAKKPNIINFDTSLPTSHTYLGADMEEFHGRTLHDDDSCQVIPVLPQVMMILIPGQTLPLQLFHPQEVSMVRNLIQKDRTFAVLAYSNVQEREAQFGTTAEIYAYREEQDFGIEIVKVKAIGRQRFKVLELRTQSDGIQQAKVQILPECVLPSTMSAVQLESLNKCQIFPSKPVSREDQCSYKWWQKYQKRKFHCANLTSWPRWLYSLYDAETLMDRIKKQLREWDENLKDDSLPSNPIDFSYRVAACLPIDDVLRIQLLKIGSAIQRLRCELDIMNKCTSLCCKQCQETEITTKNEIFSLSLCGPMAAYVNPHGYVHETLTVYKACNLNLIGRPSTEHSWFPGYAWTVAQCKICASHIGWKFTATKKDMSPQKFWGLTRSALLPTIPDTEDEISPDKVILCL
row,SMILES,inhibition at 500 µM [%]
1,"C=CC(=O)N1CCC(Oc2cccc(-c3ccc(F)cc3OC)c2)CC1 [Example 1, 1-(4-((4′-fluoro-2′-methoxy-[1,1′-biphenyl]-3-yl)oxy)piperidin-1-yl)prop-2-en-1-one]",74.8
2,C=CC(=O)N1CCC(Oc2cccc(-c3ccccc3OCC)c2)CC1 [Example 2],59.8
3,C=CC(=O)N1CCC(Oc2cccc(-c3ccccc3O)c2)CC1 [Example 3],48.9
4,C=CC(=O)N1CCC(Oc2cccc(-c3ccccc3Cl)c2)CC1 [Example 4],64.8
5,C=CC(=O)N1CCC(Oc2cc(Cl)cc(-c3ccccc3OC)c2)CC1 [Example 5],88.5
6,C=CC(=O)N1CCC(Oc2cc(Cl)cc(-c3ccccc3)c2)CC1 [Example 6],72.2
7,C=CC(=O)N1CCC(Oc2cccc(-c3ccccc3OC)c2)CC1 [Example 7],91.2
8,C#CC(=O)N1CCC(Oc2cccc(-c3ccccc3)c2)CC1 [Example 8],76.8
9,C#CC(=O)N1CCC(Oc2cccc(-c3ccccc3OC)c2)CC1 [Example 9],88.8
10,CN(C)C/C=C/C(=O)N1CCC(Oc2cccc(-c3ccccc3)c2)CC1 [Example 10],52.4
11,COc1ccccc1-c1cccc(OC2CCN(C(=O)/C=C/CN(C)C)CC2)c1 [Example 11],92.9
12,COc1ccccc1-c1cc(C#N)cc(OC2CCN(C(=O)/C=C/CN3CCOCC3)CC2)c1 [Example 12],87.2
13,C=CC(=O)N1CCC(Oc2cc(C#N)cc(-c3ccccc3)c2)CC1 [Example 13],81.3
14,C=CC(=O)N1CCC(Oc2cc(C#N)cc(-c3ccccc3OC)c2)CC1 [Example 14],94.5
15,C=CC(=O)N1CCC(Oc2cccc(-c3ccccc3OC)c2Cl)CC1 [Example 18],60.4
16,C=CC(=O)N1CCC(Oc2cccc(-c3ccccc3)c2C#N)CC1 [Example 19],68.2
17,C=CC(=O)N1CCC(Oc2cccc(-c3ccccc3OC)c2C#N)CC1 [Example 20],57.6
18,C=CC(=O)N1CCC(Oc2cc(-c3ccccc3OC)ccc2C(N)=O)CC1 [Example 21],64.6
19,C=CC(=O)N1CCC(Oc2cc(C(N)=O)cc(-c3ccccc3OC)c2)CC1 [Example 22],95.2
20,C=CC(=O)N1CCC(Oc2cc(OC)cc(-c3ccccc3)c2)CC1 [Example 23],91.1
21,C=CC(=O)N1CCC(Oc2cc(OC)cc(-c3ccccc3OC)c2)CC1 [Example 24],89.3
22,C=CC(=O)N1CCC(Oc2cc(C(=O)NC)cc(-c3ccccc3OC)c2)CC1 [Example 26],77.4
23,"C=CC(=O)N1C2CCC1CC(Oc1cc(C#N)cc(-c3ccccc3OC)c1)C2 [Example 38, 5-(((1R,3s,5S)-8-acryloyl-8-azabicyclo[3.2.1]octan-3-yl)oxy)-2′-methoxy-[1,1′-biphenyl]-3-carbonitrile]",78

# Same assay, conditions: CRBN_C287, lysate 1 h
row,SMILES,"CRBN_C287 inhibition, result in words"
1,C=CC(=O)N1CCn2c(nnc2C(F)(F)F)C1,No activity
2,C=CC(=O)N1CCC(Oc2ccc(-c3ccc(S(C)(=O)=O)cc3)cc2)CC1,No activity

# Same assay, conditions: TE50, CRBN_C287, lysate 1 h
row,SMILES,IC50 [µM]
1,"C=CC(=O)N1CCC(Oc2cc(C#N)cc(-c3ccccc3OC)c2)C(C)C1 (single isomer, unassigned) [Example 33, 5-((1-acryloyl-3-methylpiperidin-4-yl)oxy)-2′-methoxy-[1,1′-biphenyl]-3-carbonitrile]",4.66
2,"C=CC(=O)N1CCC(Oc2cc(C#N)cc(-c3ccccc3OC)c2)C(C)C1 (single isomer, unassigned) [Example 34, 5-((1-acryloyl-3-methylpiperidin-4-yl)oxy)-2′-methoxy-[1,1′-biphenyl]-3-carbonitrile]",8.97
3,"C=CC(=O)N1CCC(Oc2cc(C#N)cc(-c3ccccc3OC)c2)C(C)C1 (single isomer, unassigned) [Example 35, 5-((1-acryloyl-3-methylpiperidin-4-yl)oxy)-2′-methoxy-[1,1′-biphenyl]-3-carbonitrile]",9.8
4,C=CC(=O)N1CCC(Oc2cc(C#N)cc(-c3ccccc3CC)c2)CC1 [Example 15],22.2
5,COc1ccccc1-c1cc(C#N)cc(OC2CCN(C(=O)/C(C#N)=C/C(C)C)CC2)c1 [Example 16],0.12
6,"C=CC(=O)N1CCC(Oc2cc(-c3ccccc3OC)cnn2)CC1 [Example 27, 1-(4-((5-(2-methoxyphenyl)pyridazin-3-yl)oxy)piperidin-1-yl)prop-2-en-1-one]",7.5
7,"C=CC(=O)N1CCC(Oc2cc(-c3ccccc3OC)cc(C#N)n2)CC1 [Example 28, 6-((1-acryloylpiperidin-4-yl)oxy)-4-(2-methoxyphenyl)picolinonitrile]",80
8,"C=CC(=O)N1CC[C@H](Oc2cc(C#N)cc(-c3ccccc3OC)c2)[C@@H](F)C1 [Example 29, 5-(((3S,4S)-1-acryloyl-3-fluoropiperidin-4-yl)oxy)-2′-methoxy-[1,1′-biphenyl]-3-carbonitrile]",1.25
9,"C=CC(=O)N1CC[C@@H](Oc2cc(C#N)cc(-c3ccccc3OC)c2)[C@H](F)C1 [Example 30, 5-(((3R,4R)-1-acryloyl-3-fluoropiperidin-4-yl)oxy)-2′-methoxy-[1,1′-biphenyl]-3-carbonitrile]",0.4
10,"C=CC(=O)N1CC[C@H](Oc2cc(C#N)cc(-c3ccccc3OC)c2)[C@H](F)C1 [Example 31, 5-(((3R,4S)-1-acryloyl-3-fluoropiperidin-4-yl)oxy)-2′-methoxy-[1,1′-biphenyl]-3-carbonitrile]",0.29
11,"C=CC(=O)N1CC[C@@H](Oc2cc(C#N)cc(-c3ccccc3OC)c2)[C@@H](F)C1 [Example 32, 5-(((3S,4R)-1-acryloyl-3-fluoropiperidin-4-yl)oxy)-2′-methoxy-[1,1′-biphenyl]-3-carbonitrile]",1.49
12,"C=CC(=O)N1CC(Oc2cc(C#N)cc(-c3ccccc3OC)c2)C1 [Example 36, 5-((1-acryloylazetidin-3-yl)oxy)-2′-methoxy-[1,1′-biphenyl]-3-carbonitrile]",0.12
13,"C=CC(=O)N1CCC(Sc2cccc(-c3ccccc3OC)c2)CC1 [Example 37, 1-(4-((2′-methoxy-[1,1′-biphenyl]-3-yl)thio)piperidin-1-yl)prop-2-en-1-one]",31
14,"C=CC(=O)N1[C@@H]2CC[C@H]1C[C@H](Oc1cc(C(N)=O)cc(-c3ccccc3OC)c1)C2 [Example 39, 5-(((1R,3s,5S)-8-acryloyl-8-azabicyclo[3.2.1]octan-3-yl)oxy)-2′-methoxy-[1,1′-biphenyl]-3-carboxamide]",53
15,"C#CCOCCOCCOCCOc1ccc(OC)c(-c2cc(C#N)cc(OC3CCN(C(=O)C=C)CC3)c2)c1 [Example 40, 3-[2-methoxy-5-[2-[2-(2-prop-2-ynoxyethoxy)ethoxy]ethoxy]phenyl]-5-[(1-prop-2-enoyl-4-piperidyl)oxy]benzonitrile]",2.57
16,"C=CC(=O)N1CCC(Oc2cc(OC(F)(F)F)cc(-c3ccccc3OC)c2)CC1 [Example 41, 1-(4-((2′-methoxy-5-(trifluoromethoxy)-[1,1′-biphenyl]-3-yl)oxy)piperidin-1-yl)prop-2-en-1-one]",31

# Target: T2, CRBN Cys287 (Homo sapiens, UniProt Q96SW2)
# T2 construct: endogenous in cells
# T2 sequence (Q96SW2 whole entry): as above
# Assay: Inhibition of iodoacetamide probe labeling of CRBN cysteines, cell lysate (Table 3A)
# Format: binding
# Details: 7.8 micromolar, cell lysate, 1 h
# Protocol: “X@Y” means that x % inhibition of iodoacetamide probe labeling was observed by treatment of cell lysate with the give compound in each row of the table for 1 h at a concentration of y micromolar. There was consistently high inhibition at C318 in addition to C287, which can be attributed to an allosteric inhibition.
row,SMILES,inhibition at 7.8 µM [%]
1,COc1ccccc1-c1cc(C#N)cc(OC2CCN(C(=O)/C(C#N)=C/C(C)(C)C)CC2)c1 [Example A4],96

# Same assay, conditions: 31.2 micromolar, cell lysate, 1 h; read-out: % inhibition of iodoacetamide probe labeling, Cys287
row,SMILES,inhibition at 31.2 µM [%]
1,COc1ccccc1-c1cc(C#N)cc(OC2CCN(C(=O)/C(C#N)=C/C(C)(C)C)CC2)c1 [Example A4],97
2,CC(/C=C(\C#N)C(=O)N1CCC(Oc2cccc(C#N)c2)CC1)c1ccccc1 (centres unmarked) [Example A6],82

# Same assay, conditions: 125 micromolar, cell lysate, 1 h; read-out: % inhibition of iodoacetamide probe labeling, Cys287
row,SMILES,inhibition at 125 µM [%]
1,CC(/C=C(\C#N)C(=O)N1CCC(Oc2cccc(C#N)c2)CC1)c1ccccc1 (centres unmarked) [Example A6],94

# Same assay, conditions: 500 micromolar, cell lysate, 1 h; read-out: % inhibition of iodoacetamide probe labeling, Cys287
row,SMILES,inhibition at 500 µM [%]
1,COc1ccccc1-c1cc(C#N)cc(OC2CCN(C(=O)/C(C#N)=C/C(C)(C)C)CC2)c1 [Example A4],99
2,CC(/C=C(\C#N)C(=O)N1CCC(Oc2cccc(C#N)c2)CC1)c1ccccc1 (centres unmarked) [Example A6],95

# Same assay, conditions: read-out: % inhibition of iodoacetamide probe labeling, Cys287
SMILES,inhibition at 125 µM [%],inhibition at 0.49 µM [%],inhibition at 2 µM [%]
COc1ccccc1-c1cc(C#N)cc(OC2CCN(C(=O)/C(C#N)=C/C(C)(C)C)CC2)c1 [Example A4],99,–,–
CC(/C=C(\C#N)C(=O)N1CCC(Oc2cccc(C#N)c2)CC1)c1ccccc1 (centres unmarked) [Example A6],–,62,77
